Experiments:
Type in all cases: functional
SK-MEL-28 = test: Cytotoxicity against Homo sapiens (human) SK-MEL-28 cells assessed as growth inhibition at 10 uM after 48 hr by coulter counter analysis; conditions: SK-MEL-28, 48 h, read-out: GI
MDA-MB-435 = test: Cytotoxicity against Homo sapiens (human) MDA-MB-435 cells assessed as growth inhibition at 10 uM after 48 hr by coulter counter analysis; conditions: MDA-MB-435, 48 h, read-out: GI
M14 = test: Cytotoxicity against Homo sapiens (human) M14 cells assessed as growth inhibition at 10 uM after 48 hr by coulter counter analysis; conditions: M14, 48 h, read-out: GI
SNB-75 = test: Cytotoxicity against Homo sapiens (human) SNB75 cells assessed as growth inhibition at 10 uM after 48 hr by coulter counter analysis; conditions: SNB-75, 48 h, read-out: GI
SNB-19 = test: Cytotoxicity against Homo sapiens (human) SNB19 cells assessed as growth inhibition at 10 uM after 48 hr by coulter counter analysis; conditions: SNB-19, 48 h, read-out: GI
OVCAR-3 = test: Cytotoxicity against Homo sapiens (human) OVCAR3 cells assessed as growth inhibition at 10 uM after 48 hr by coulter counter analysis; conditions: OVCAR-3, 48 h, read-out: GI
IGROV-1 = test: Cytotoxicity against Homo sapiens (human) IGROV1 cells assessed as growth inhibition at 10 uM after 48 hr by coulter counter analysis; conditions: IGROV-1, 48 h, read-out: GI
T47D = test: Cytotoxicity against Homo sapiens (human) T47D cells assessed as growth inhibition at 10 uM after 48 hr by coulter counter analysis; conditions: read-out: GI
MCF7 = test: Cytotoxicity against Homo sapiens (human) MCF7 cells assessed as growth inhibition at 10 uM after 48 hr by coulter counter analysis; conditions: MCF7, 48 h, read-out: GI
DU-145 = test: Cytotoxicity against Homo sapiens (human) DU145 cells assessed as growth inhibition at 10 uM after 48 hr by coulter counter analysis; conditions: DU-145, 48 h, read-out: GI
UO-31 = test: Cytotoxicity against Homo sapiens (human) UO31 cells assessed as growth inhibition at 10 uM after 48 hr by coulter counter analysis; conditions: UO-31, 48 h, read-out: GI
TK-10 = test: Cytotoxicity against Homo sapiens (human) TK10 cells assessed as growth inhibition at 10 uM after 48 hr by coulter counter analysis; conditions: TK-10, 48 h, read-out: GI
786-0 = test: Cytotoxicity against Homo sapiens (human) 786-0 cells assessed as growth inhibition at 10 uM after 48 hr by coulter counter analysis; conditions: 786-0, 48 h, read-out: GI
KM12 = test: Cytotoxicity against Homo sapiens (human) KM12 cells assessed as growth inhibition at 10 uM after 48 hr by coulter counter analysis; conditions: KM12, 48 h, read-out: GI
SW-620 = test: Cytotoxicity against Homo sapiens (human) SW620 cells assessed as growth inhibition at 10 uM after 48 hr by coulter counter analysis; conditions: SW-620, 48 h, read-out: GI
NCI-H522 = test: Cytotoxicity against Homo sapiens (human) NCI-H522 cells assessed as growth inhibition at 10 uM after 48 hr by coulter counter analysis; conditions: NCI-H522, 48 h, read-out: GI
NCI-H460 = test: Cytotoxicity against Homo sapiens (human) NCI-H460 cells assessed as growth inhibition at 10 uM after 48 hr by coulter counter analysis; conditions: NCI-H460, 48 h, read-out: GI
NCI-H23 = test: Cytotoxicity against Homo sapiens (human) NCI-H23 cells assessed as growth inhibition at 10 uM after 48 hr by coulter counter analysis; conditions: NCI-H23, 48 h, read-out: GI
HOP-62 = test: Cytotoxicity against Homo sapiens (human) HOP62 cells assessed as growth inhibition at 10 uM after 48 hr by coulter counter analysis; conditions: HOP-62, 48 h, read-out: GI
A549 = test: Cytotoxicity against Homo sapiens (human) A549 cells assessed as growth inhibition at 10 uM after 48 hr by coulter counter analysis; conditions: A549, 48 h, read-out: GI
SR = test: Cytotoxicity against Homo sapiens (human) SR cells assessed as growth inhibition at 10 uM after 48 hr by coulter counter analysis; conditions: read-out: GI
RPMI-8226 = test: Cytotoxicity against Homo sapiens (human) RPMI8226 cells assessed as growth inhibition at 10 uM after 48 hr by coulter counter analysis; conditions: RPMI-8226, 48 h, read-out: GI
MOLT-4 = test: Cytotoxicity against Homo sapiens (human) MOLT4 cells assessed as growth inhibition at 10 uM after 48 hr by coulter counter analysis; conditions: MOLT-4, 48 h, read-out: GI
UACC-62 = test: Cytotoxicity against Homo sapiens (human) UACC62 cells assessed as growth inhibition at 10 uM after 48 hr by coulter counter analysis; conditions: UACC-62, 48 h, read-out: GI

Row | SMILES | inhibition of growth at 10 µM (SK-MEL-28) | inhibition of growth at 10 µM (MDA-MB-435) | inhibition of growth at 10 µM (M14) | inhibition of growth at 10 µM (SNB-75) | inhibition of growth at 10 µM (SNB-19) | inhibition of growth at 10 µM (OVCAR-3) | inhibition of growth at 10 µM (IGROV-1) | inhibition of growth at 10 µM (T47D) | inhibition of growth at 10 µM (MCF7) | inhibition of growth at 10 µM (DU-145) | inhibition of growth at 10 µM (UO-31) | inhibition of growth at 10 µM (TK-10) | inhibition of growth at 10 µM (786-0) | inhibition of growth at 10 µM (KM12) | inhibition of growth at 10 µM (SW-620) | inhibition of growth at 10 µM (NCI-H522) | inhibition of growth at 10 µM (NCI-H460) | inhibition of growth at 10 µM (NCI-H23) | inhibition of growth at 10 µM (HOP-62) | inhibition of growth at 10 µM (A549) | other results
1 | O=c1[nH]nnc2c1C(c1ccc(Cl)cc1)C1=C(CCCC1)N2 (configuration not stated) | < 10% | < 10% | < 10% | < 10% | < 10% | < 10% | < 10% | 13.3% | < 10% | < 10% | 43.4% | < 10% | < 10% | < 10% | < 10% | 13.5% | < 10% | 10.4% | < 10% | < 10% | inhibition of growth at 10 µM (SR): < 10%; inhibition of growth at 10 µM (RPMI-8226): < 10%; inhibition of growth at 10 µM (MOLT-4): < 10%
2 | N#CCc1nc2c(c(=O)[nH]1)C(c1ccc(Cl)cc1)C1=C(CCCC1)N2 (configuration not stated) | < 10% | < 10% | < 10% | 20.4% | < 10% | < 10% | < 10% | 14.1% | < 10% | < 10% | 37.7% | < 10% | < 10% | < 10% | < 10% | 11.4% | < 10% | 12.1% | 12.5% | < 10% | inhibition of growth at 10 µM (SR): < 10%; inhibition of growth at 10 µM (RPMI-8226): < 10%; inhibition of growth at 10 µM (MOLT-4): < 10%
3 | CN(C)c1ccc(-c2nc3c(c(=O)[nH]2)C(c2ccc(Cl)cc2)C2=C(CCCC2)N3)cc1 (configuration not stated) | < 10% | < 10% | < 10% | 12% | < 10% | 11.1% | < 10% | 17.6% | < 10% | < 10% | 47.4% | < 10% | < 10% | < 10% | < 10% | 15.8% | < 10% | 12.4% | 12.8% | < 10% | inhibition of growth at 10 µM (SR): < 10%; inhibition of growth at 10 µM (RPMI-8226): < 10%; inhibition of growth at 10 µM (MOLT-4): < 10%
4 | COc1ccc(-c2nc3c(c(=O)[nH]2)C(c2ccc(Cl)cc2)C2=C(CCCC2)N3)cc1OC (configuration not stated) | < 10% | < 10% | < 10% | 11.2% | < 10% | < 10% | < 10% | < 10% | 13.5% | < 10% | 41.7% | < 10% | < 10% | < 10% | < 10% | 10.1% | < 10% | < 10% | 10.2% | < 10% | inhibition of growth at 10 µM (SR): < 10%; inhibition of growth at 10 µM (RPMI-8226): < 10%; inhibition of growth at 10 µM (MOLT-4): < 10%
5 | COc1ccc(C2C3=C(CCCC3)Nc3nc(-c4ccc(N(C)C)cc4)[nH]c(=O)c32)cc1OC (configuration not stated) | < 10% | < 10% | < 10% | < 10% | < 10% | < 10% | < 10% | 14.9% | < 10% | < 10% | 29.4% | < 10% | < 10% | < 10% | < 10% | 14.4% | < 10% | < 10% | < 10% | < 10% | inhibition of growth at 10 µM (SR): < 10%; inhibition of growth at 10 µM (RPMI-8226): < 10%; inhibition of growth at 10 µM (MOLT-4): < 10%
6 | Oc1ccc(-c2nc3c4c(ncn3n2)NC2=C(CCCC2)C4c2ccc(Cl)cc2)cc1 (configuration not stated) | < 10% | < 10% | < 10% | 20.5% | < 10% | < 10% | < 10% | 15.8% | < 10% | < 10% | 29% | < 10% | < 10% | < 10% | < 10% | < 10% | < 10% | 12.9% | 16.6% | < 10% | inhibition of growth at 10 µM (UACC-62): 17.4%; inhibition of growth at 10 µM (SR): < 10%; inhibition of growth at 10 µM (RPMI-8226): 13.2%; inhibition of growth at 10 µM (MOLT-4): < 10%
7 | COc1ccc(C2C3=C(CCCC3)Nc3ncn4nc(-c5ccccc5)nc4c32)cc1OC (configuration not stated) | < 10% | < 10% | < 10% | < 10% | < 10% | < 10% | < 10% | 26.2% | < 10% | < 10% | 38.7% | < 10% | < 10% | < 10% | < 10% | 31.4% | < 10% | 10.7% | < 10% | 12.3% | inhibition of growth at 10 µM (UACC-62): < 10%; inhibition of growth at 10 µM (SR): < 10%; inhibition of growth at 10 µM (RPMI-8226): 10.5%; inhibition of growth at 10 µM (MOLT-4): 19.8%
8 | COc1ccc(C2C3=C(CCCC3)Nc3ncn4nc(-c5ccc(O)cc5)nc4c32)cc1OC (configuration not stated) | < 10% | < 10% | < 10% | 19.1% | < 10% | < 10% | < 10% | 18.8% | < 10% | < 10% | 29.3% | < 10% | < 10% | < 10% | < 10% | 16.4% | < 10% | < 10% | < 10% | < 10% | inhibition of growth at 10 µM (UACC-62): < 10%; inhibition of growth at 10 µM (SR): < 10%; inhibition of growth at 10 µM (RPMI-8226): < 10%; inhibition of growth at 10 µM (MOLT-4): 12.3%

Source: ChEMBL document CHEMBL3045802, “Synthesis and in vitro antitumor activity of new quinoline, pyrimido[4,5-b]quinoline, [1,2,3]triazino[4,5-b]quinoline, and [1,2,4]triazolo[2,3:3,4]pyrimido[6,5-b]quinoline analogs” (2013)
